According to patent US20020128311A1, “Halocyanoacetamide antimicrobial compositions” (priority 2000, published 2002):
Blank lines part the entries; values can stand above or below the molecule they belong to.

Columns and labels:
[1] = Freeze/thaw stability of DCOIT/DBNPA/surfactant/GTA compositions, HPLC; format: physicochemical; details: for % DCOIT retained after Freezing and Thawing: thawed at 25° C. 5 hours, three times
Experimental: Samples were prepared to test the freeze/thaw stability of compositions of the present invention. The freeze/thaw test was conducted for compositions of […], surfactant and GTA prepared in Example 4. Samples (20 g each) were stored at -10° C. or -25° C. for 19 hours to be frozen; samples were then stored at 25° C. for 5 hours to be thawed. This sequence was repeated three times. Then the concentrations of active ingredients ([…]) in the compositions were determined by HPLC.

[2] = Solubility in glyceryl triacetate; details: based on total amount of compound and solvent
[3] = Stability of DCOIT and DBNPA mixtures in GTA, stored at 40° C., HPLC; format: physicochemical; details: 4% DCOIT, […]% DBNPA
Experimental: […] […] Surfactants were TweenTM 20, TritonTM DF-12 or TritonTM CF-10. These compositions were stored at 40° C. for 6 weeks and the concentrations of active ingredients ([…]) in the compositions were determined by HPLC at the indicated time intervals.

[4] = Stability of CMIT and DBNPA mixtures in GTA, stored at 50° C., HPLC; format: physicochemical; details: […]% DBNPA, […]% CMIT/MIT mixture
Experimental: Surfactants were TweenTM 20, TritonTM DF-12 or TritonTM CF-10. The compositions were stored at 50° C. for 4 weeks and the concentrations of active ingredients ([…]) in the compositions were determined by HPLC at the indicated time intervals.

% DCOIT retained after Freezing and Thawing ([1]; Example 4 composition with Triton CF-10, frozen at −10° C. 19 hours): 100.0%
% DCOIT retained after Freezing and Thawing ([1]; Example 4 composition with Triton CF-10, frozen at −25° C. 19 hours): 100.0%
% DCOIT retained after Freezing and Thawing ([1]; Example 4 composition with Triton DF-12, frozen at −10° C. 19 hours): 100.0%
% DCOIT retained after Freezing and Thawing ([1]; Example 4 composition with Triton DF-12, frozen at −25° C. 19 hours): 100.0%
% DCOIT retained after Freezing and Thawing ([1]; Example 4 composition with Tween 20, frozen at −10° C. 19 hours): 100.0%
% DCOIT retained after Freezing and Thawing ([1]; Example 4 composition with Tween 20, frozen at −25° C. 19 hours): 100.0%
solubility in glyceryl triacetate ([2]; at 5° C.): 8 % by weight
solubility in glyceryl triacetate ([2]; at 25° C.): 8 % by weight
solubility in glyceryl triacetate ([2]; at 40° C.): 20 % by weight
% DCOIT retained ([3]; 5% Triton CF-10, 66% GTA, 4 Weeks): 96.0%
% DCOIT retained ([3]; 5% Triton CF-10, 66% GTA, 6 Weeks): 95.6%
% DCOIT retained ([3]; 5% Triton CF-10, 66% GTA, Time 0): 100.0%
% DCOIT retained ([3]; 5% Triton DF-12, 66% GTA, 4 Weeks): 100.0%
% DCOIT retained ([3]; 5% Triton DF-12, 66% GTA, 6 Weeks): 98.2%
% DCOIT retained ([3]; 5% Triton DF-12, 66% GTA, Time 0): 100.0%
% DCOIT retained ([3]; 5% Tween 20, 66% GTA, 4 Weeks): 94.3%
% DCOIT retained ([3]; 5% Tween 20, 66% GTA, 6 Weeks): 94.0%
% DCOIT retained ([3]; 5% Tween 20, 66% GTA, Time 0): 100.0%
SMILES: CCCCCCCCn1sc(Cl)c(Cl)c1=O [DCOIT]
physical stability (appearance) during freeze/thaw cycling ([1]; in GTA solutions in the presence of surfactants): clear solution, no precipitation or phase separation observed

SMILES: Cn1sc(Cl)cc1=O [CMIT, 5-chloro-2-methyl-3-isothiazolone]
% CMIT retained ([4]; 5% Triton CF-10, 45% GTA, 0 Time): 100%
% CMIT retained ([4]; 5% Triton CF-10, 45% GTA, 1 Week): 98%
% CMIT retained ([4]; 5% Triton CF-10, 45% GTA, 2 Weeks): 96%
% CMIT retained ([4]; 5% Triton CF-10, 45% GTA, 3 Weeks): 86%
% CMIT retained ([4]; 5% Triton CF-10, 45% GTA, 4 Weeks): 84%
% CMIT retained ([4]; 5% Triton DF-12, 45% GTA, 0 Time): 100%
% CMIT retained ([4]; 5% Triton DF-12, 45% GTA, 1 Week): 100%
% CMIT retained ([4]; 5% Triton DF-12, 45% GTA, 2 Weeks): 99%
% CMIT retained ([4]; 5% Triton DF-12, 45% GTA, 3 Weeks): 87%
% CMIT retained ([4]; 5% Triton DF-12, 45% GTA, 4 Weeks): 85%
% CMIT retained ([4]; 5% Tween 20, 45% GTA, 0 Time): 100%
% CMIT retained ([4]; 5% Tween 20, 45% GTA, 1 Week): 100%
% CMIT retained ([4]; 5% Tween 20, 45% GTA, 2 Weeks): 80%
% CMIT retained ([4]; 5% Tween 20, 45% GTA, 3 Weeks): 75%
% CMIT retained ([4]; 5% Tween 20, 45% GTA, 4 Weeks): 74%
% CMIT retained ([4]; no surfactant, 50% GTA, 0 Time): 100%
% CMIT retained ([4]; no surfactant, 50% GTA, 1 Week): 102%
% CMIT retained ([4]; no surfactant, 50% GTA, 2 Weeks): 97%
% CMIT retained ([4]; no surfactant, 50% GTA, 3 Weeks): 90%
% CMIT retained ([4]; no surfactant, 50% GTA, 4 Weeks): 88%
